In article PMC9501280, “Anti-Inflammatory Activity of Soluble Epoxide Hydrolase Inhibitors Based on Selenoureas Bearing an Adamantane Moiety” (International Journal of Molecular Sciences, 2022):
In brackets after ≈: the same amount, converted by molar mass. Where two headings read alike, the source gives them in different places.

Experiments:
human recombinant sEH = target: T1, human recombinant sEH (Homo sapiens, UniProt P34913); experiment: Human sEH inhibition, kinetic fluorescent assay; type: biochemical
T1 sequence (P34913 1-555): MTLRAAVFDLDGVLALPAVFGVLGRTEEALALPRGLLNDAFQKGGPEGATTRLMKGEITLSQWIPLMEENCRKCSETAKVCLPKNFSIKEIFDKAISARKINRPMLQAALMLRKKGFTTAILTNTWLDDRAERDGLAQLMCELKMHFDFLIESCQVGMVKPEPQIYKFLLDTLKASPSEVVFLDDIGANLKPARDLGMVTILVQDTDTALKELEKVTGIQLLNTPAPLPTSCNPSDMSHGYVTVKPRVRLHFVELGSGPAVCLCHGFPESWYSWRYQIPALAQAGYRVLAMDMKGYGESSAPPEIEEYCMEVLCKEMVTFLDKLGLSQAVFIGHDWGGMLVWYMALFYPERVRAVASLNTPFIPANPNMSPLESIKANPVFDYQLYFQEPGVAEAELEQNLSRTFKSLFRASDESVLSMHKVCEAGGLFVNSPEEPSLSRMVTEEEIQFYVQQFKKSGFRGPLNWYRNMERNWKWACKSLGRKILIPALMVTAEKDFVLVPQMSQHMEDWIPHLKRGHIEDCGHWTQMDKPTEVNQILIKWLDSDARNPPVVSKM

[1] = Antiradical activity in nonenzymatic quinoid oxidation of adrenaline; conditions: adrenaline autoxidation without compound = 100%; initial concentration 25 µM
Procedure: The antiradical activity of compounds 4a–g and 5a in the reaction of nonenzymatic quinoid oxidation of adrenaline (1-(3,4-dioxyphenyl)-2-methylaminoethanol) in alkaline bicarbonate buffer was evaluated. As a result of this reaction, not only the superoxide anion radical is formed, but also radicals of carbonate–bicarbonate anions, which makes it possible to reveal the total antiradical activity of potential antioxidants. […] Thus, we confirmed the antiradical activity of compounds 4a–g and 5a with respect to O2^–• generated in enzymatic and nonenzymatic model systems.
SOD-protective activity of the biopreparation was the ability to utilize the superoxide anion radical O2^–•, as determined by the method of Sirota. A cytosolic fraction of the Russian sturgeon liver homogenate was used as the source of SOD. First, the sturgeon liver was washed with cold 0.2 M Tris (tris (hydroxymethyl) aminomethane) buffer (pH 7.8) to remove any traces of blood. All of the procedures were performed at a temperature of 0–4 °C. Next, a homogenate was obtained using a Potter homogenizer (Thomas Scientific, Swedesboro, NJ, USA) in 0.2 M Tris buffer at a ratio of 1:10. The homogenate was then centrifuged for 10 min at 1000× g to remove partially destroyed cells and nuclei. The resulting supernatant contained the enzymes of the cytosolic fraction of the liver homogenate, including the SOD. Here, 10 µL of the biopreparation was added to a cuvette with 200 µL of bicarbonate buffer (pH 10.65), 10 µL of the tested compound (initial concentrations of these compounds 25 µM) and 10 µL of 0.1% adrenaline solution and was thoroughly and quickly mixed. The rate of adrenaline oxidation without and in the presence of the biopreparation was evaluated by the change in optical density, measured at 347 nm for 3 min. The decrease in the rate of the process in the presence of the biopreparation was used to characterize the SOD-protective activity.

[2] = Superoxide radical anion formation by xanthine oxidase (NBT assay); type: biochemical; conditions: sample solution 5 mM in DMSO
Procedure: The superoxide anion radical scavenging activity of derivatives 4a–g and 5a was evaluated by the ability to inhibit the reduction of nitro blue tetrazolium (NBT) to blue formazan by trapping O2^•− generated by xanthine oxidase in the oxidation of hypoxanthine to uric acid.
EDTA, xanthine, bovine serum albumin, nitro blue tetrazolium and xanthine oxidase (25 MU) were purchased from Sigma Aldrich (Burlington, MA, USA). The superoxide anions were generated enzymatically by the xanthine oxidase system. The reaction mixture consisted of 2.70 mL of 40 mM sodium carbonate buffer containing 0.1 mM EDTA (pH 10.0), 0.06 mL of 10 mM xanthine, 0.03 mL of 0.5% bovine serum albumin, 0.03 mL of 2.5 mM nitro blue tetrazolium and 0.06 mL of the sample solution in DMSO at the concentration of 5 mM. An amount of 0.12 mL of xanthine oxidase (0.04 units) was added to the mixture at 25 °C, and the absorbance at 560 nm (by formation of blue formazan) was measured by a microplate spectrophotometer for 60 s. A control experiment was carried out by replacing the sample solution with the same amount of DMSO.
Inhibition I (%) = [(1 − Ai/A0) × 100%], where Ai is the absorbance in the presence of the testing compound, and A0 is the absorbance of the blank solution. All experiments were performed three times.

[3] = Solubility in sodium phosphate buffer; type: physicochemical; conditions: aqueous buffer, kinetic from dmso stock; sodium phosphate buffer (pH 7.4, 0.1 M) containing 1% DMSO
Procedure: To our knowledge, no systematic studies of selenoureas as sEH inhibitors have been performed previously. The potency of the compounds was determined against the human recombinant sEH and their solubility assessed in phosphate-buffered saline (Table 1).

[4] = DPPH radical scavenging activity; conditions: compound solution 0.2 mM in MeOH mixed 1:1 with 0.2 mM DPPH, 40 min, 20 °C
Procedure: The free radical scavenging activity was evaluated using the stable radical 2,2-diphenyl-1-picrylhydrazyl (DPPH), according to the method described by Brand-Williams with a slight modification. Solutions of the compounds in MeOH were studied at a concentration of 0.2 mM. The stock DPPH solution contained 0.2 mM of radical in MeOH. An amount of 0.1 mL of the test compound solution was added to 0.1 mL of DPPH solution (0.2 mM) in each cell so that the initial DPPH concentration in the cells was 0.1 mM. The microplate was placed in a spectrophotometer, and the decrease in the absorbance values of the DPPH solution for 40 min at 20 °C was measured at λmax = 517 nm. The results were expressed as scavenging activity, calculated as follows: scavenging activity, % = [(A0 − A1)/A0] × 100, where A0 is the optical density of the control solution DPPH, and A1 is the optical density of the reaction mixture solution.

[5] = kinetic fluorescent assay, means of three separate experiments, read-out: Human sEH IC50

Row | SMILES | IC50 (human recombinant sEH; [5]) | % Inhibition, Antiradical Activity (O2–•) [1] | % Inhibition NBT [2] | solubility [3] | % Inhibition DPPH• [4] | increase in the inhibitory activity (human recombinant sEH; 4b versus 4a, one methylene group between adamantyl and selenourea) | IC50 (human recombinant sEH; human sEH, read-out: IC50 (sEH))
1 | [Se]=C(Nc1ccccc1)NC12CC3CC(CC(C3)C1)C2 [4a, 1-(Adamantan-1-yl)-3-phenylselenourea] | 436 nM | 35.49 ± 0.03% | 29.17 ± 0.01% | 55 ± 10 µM (≈ 18.3 µg/mL) | 44.89 ± 0.04% |  | 
2 | [Se]=C(NCC12CC3CC(CC(C3)C1)C2)Nc1ccccc1 [4b, 1-[(Adamantan-1-yl)methyl]-3-phenylselenourea] | 131 nM | 19.37 ± 0.88% | 35.20 ± 1.46% | 110 ± 20 µM (≈ 38.2 µg/mL) | 70.75 ± 1.10% | 3.3 fold | 
3 | CC(NC(=[Se])Nc1ccccc1)C12CC3CC(CC(C3)C1)C2 (stereo not drawn) [4c, 1-[1-(Adamantan-1-yl)ethyl]-3-phenylselenourea] | 1210 nM | 21.64 ± 2.29% | 6.52 ± 0.50% | 50 ± 5 µM (≈ 18.1 µg/mL) | 68.81 ± 1.69% |  | 1200 nM
4 | [Se]=C(NCCC12CC3CC(CC(C3)C1)C2)Nc1ccccc1 [4d, 1-[2-(Adamantan-1-yl)ethyl]-3-phenylselenourea] | 49.1 nM | 9.97 ± 0.41% | 6.85 ± 1.18% | 70 ± 10 µM (≈ 25.3 µg/mL) | 70.90 ± 2.13% |  | 
5 | [Se]=C(Nc1ccccc1)Nc1ccc(C23CC4CC(CC(C4)C2)C3)cc1 [4e, 1-[4-(Adamantan-1-yl)phenyl]-3-phenylselenourea] | 55.4 nM | 23.68 ± 0.03% | 4.75 ± 0.50% | 30 ± 10 µM (≈ 12.3 µg/mL) | 66.15 ± 0.56% |  | 
6 | CC12CC3CC(C)(C1)CC(NC(=[Se])Nc1ccccc1)(C3)C2 [4f, 1-(3,5-Dimethyladamantan-1-yl)-3-phenylselenourea] | 256 nM | 20.95 ± 1.20% | 10.93 ± 1.05% | 100 ± 10 µM (≈ 36.1 µg/mL) | 58.35 ± 0.92% |  | 
7 | [Se]=C(Nc1ccccc1)NC1C2CC3CC(C2)CC1C3 (stereo not drawn) [4g, 1-(Adamantan-2-yl)-3-phenylselenourea] | 104 nM | 24.66 ± 1.33% | 14.26 ± 1.48% | 80 ± 20 µM (≈ 26.7 µg/mL) | 71.82 ± 1.10% |  | 
8 | [Se]=C(NCc1ccccc1)NC12CC3CC(CC(C3)C1)C2 [5a, 1-(Adamantan-1-yl)-3-benzylselenourea] | 211 nM | 43.79 ± 0.02% | 56.52 ± 0.05% | 125 ± 20 µM (≈ 43.4 µg/mL) | 59.45 ± 0.09% |  | 
